Where two headings read alike, the source gives them in different places.
What was measured:
[1] = Phase 1 MAD (Part B) plasma pharmacokinetics in healthy subjects; type: in vivo, human; details: for half-life: read-out: t1/2, mean (SD) (converted); for AUC: part B (MAD), 100 to 1000 mg BID
Protocol: The plasma PK parameters of the compound of formula (I) calculated following single (Part A) or multiple (Parts B) oral doses.
In each cohort, healthy subjects meeting eligibility criteria were sequentially randomized in a 3:1 ratio to receive either the compound of formula (I) or placebo BID, each morning and evening (approximately 12 hours following the morning dose) for 10 consecutive days of dosing, except for Day 10 where subjects were only received a morning dose. Subjects were dosed in an upright (i.e., seated or standing) position and remained upright for 5 minutes after dosing before a posture change for other study procedures, if applicable. Subjects fasted overnight for at least 9.5 hours prior to morning dose on Day 1 and Day 10. Subjects continued the fast for at least 4 hours post morning dose on these days. For all other morning doses and for all evening doses (i.e., Day 1 evening and Days 2 to 9), subjects were required to fast for at least 2 hours prior and for at least 2 hours following the dose.
PK sampling for the compound of formula (I) in plasma was taken Day 1 pre-morning dose and for 12 hours post-dose and Day 10 pre-morning dose and for 72 hours post Day 10 dose. Additional pre morning dose samples were taken on Days 2, 4, 6, and 8.
For all subjects, blood samples for the determination of plasma concentration of the compound of formula (I) were collected at scheduled time points. Blood samples were analyzed to calculate different plasma PK parameters in both part A and part B.
For all PK data analyses, the PK analysis set was used. Individual subject and mean plasma drug concentration versus time curves for the compound of formula (I) were presented for each dose group. Summary statistics (mean, standard deviation, coefficient of variation, median, minimum, maximum, geometric mean, geometric coefficient of variation, number of subjects) were calculated for plasma concentrations at each time point for each dose group, and the PK parameters for each dose group. Urine PK parameters were summarized for exploratory purposes.

[2] = Colon and plasma mouse pharmacokinetics; type: in vivo
[3] = tested on: oxazolone-induced colitis model in mice; assay: Oxazolone-induced colitis model in mice; type: in vivo
Excerpt: (§1) Oxazolone-induced colitis is an experimental model that has a histological resemblance to human ulcerative colitis.

splenic NK cell counts = assay: Immunosuppression model in mice (splenic NK cell counts); type: in vivo; details: same or higher doses than required for efficacy in the oxazolone model
Excerpt: as §1

[4] = plasma, Day 1, 100 mg BID, n = 6
[5] = plasma, Day 1, 300 mg BID, n = 6
[6] = plasma, Day 1, 1000 mg BID, n = 6
[7] = plasma, Day 10, 100 mg BID, n = 6
[8] = plasma, Day 10, 300 mg BID, n = 6

SMILES: CN(C)C/C=C/C(=O)N1CC(COc2cc(-c3ccc(O)cc3)cc3[nH]ncc23)C1 [compound of formula (I)]
- dose proportionality of exposure (AUC and Cmax) ([1]; after multiple-dose administration): dose proportionally
- Tmax ([1]; both sexes, human, oral, plasma, Day 10 (morning dose), 100 mg BID, n = 6, read-out: Tmax,ss, median (min, max)): 2 h
- half-life ([1]; both sexes, human, oral, plasma, Day 10 (morning dose), 100 mg BID, n = 6): 19.8 h
- Tmax ([1]; both sexes, human, oral, plasma, Day 10 (morning dose), 300 mg BID, n = 6, read-out: Tmax,ss, median (min, max)): 1 h
- half-life ([1]; both sexes, human, oral, plasma, Day 10 (morning dose), 300 mg BID, n = 6): 19.2 h
- Tmax ([1]; both sexes, human, oral, plasma, Day 10 (morning dose), 1000 mg BID, n = 6, read-out: Tmax,ss, median (min, max)): 1 h
- half-life ([1]; both sexes, human, oral, plasma, Day 10 (morning dose), 1000 mg BID, n = 6): 18.5 h
- AUC(0-t) ([1]; both sexes, human, plasma, oral, 100 mg, plasma, Day 1 (morning dose), 100 mg BID, n = 6, read-out: AUC0-12, mean (SD)): 3.5 ng·h/mL
- AUC(0-t) ([1]; both sexes, human, plasma, oral, 100 mg, plasma, Day 10 (morning dose), 100 mg BID, n = 6, read-out: AUC0-12,ss, mean (SD)): 8.9 ng·h/mL
- Cmax ([1]; both sexes, human, plasma, oral, 100 mg, plasma, Day 10 (morning dose), 100 mg BID, n = 6, read-out: Cmax,ss, mean (SD)): 1.7 ng/mL
- AUC(0-t) ([1]; both sexes, human, plasma, oral, 300 mg, plasma, Day 1 (morning dose), 300 mg BID, n = 6, read-out: AUC0-12, mean (SD)): 8.5 ng·h/mL
- AUC(0-t) ([1]; both sexes, human, plasma, oral, 300 mg, plasma, Day 10 (morning dose), 300 mg BID, n = 6, read-out: AUC0-12,ss, mean (SD)): 16.9 ng·h/mL
- Cmax ([1]; both sexes, human, plasma, oral, 300 mg, plasma, Day 10 (morning dose), 300 mg BID, n = 6, read-out: Cmax,ss, mean (SD)): 3.5 ng/mL
- AUC(0-t) ([1]; both sexes, human, plasma, oral, 1000 mg, plasma, Day 1 (morning dose), 1000 mg BID, n = 6, read-out: AUC0-12, mean (SD)): 37.4 ng·h/mL
- AUC(0-t) ([1]; both sexes, human, plasma, oral, 1000 mg, plasma, Day 10 (morning dose), 1000 mg BID, n = 6, read-out: AUC0-12,ss, mean (SD)): 62.1 ng·h/mL
- Cmax ([1]; both sexes, human, plasma, oral, 1000 mg, plasma, Day 10 (morning dose), 1000 mg BID, n = 6, read-out: Cmax,ss, mean (SD)): 13.3 ng/mL
- Tmax ([1]; human, oral, plasma, Day 1 (morning dose), 100 mg BID, n = 6, read-out: Tmax, median (min, max)): 1.5 h
- Tmax ([1]; human, oral, plasma, Day 1 (morning dose), 300 mg BID, n = 6, read-out: Tmax, median (min, max)): 1 h
- Tmax ([1]; human, oral, plasma, Day 1 (morning dose), 1000 mg BID, n = 6, read-out: Tmax, median (min, max)): 1.5 h
- Cmax ([1]; human, plasma, oral, 100 mg, plasma, Day 1 (morning dose), 100 mg BID, n = 6, read-out: Cmax, mean (SD)): 0.78 ng/mL
- Cmax ([1]; human, plasma, oral, 300 mg, plasma, Day 1 (morning dose), 300 mg BID, n = 6, read-out: Cmax, mean (SD)): 2.6 ng/mL
- Cmax ([1]; human, plasma, oral, 1000 mg, highest tested dose (1000 mg BID), read-out: mean Cmax,ss (maximum observed concentration at steady-state)): 13 ng/mL
- Cmax ([1]; human, plasma, oral, 1000 mg, plasma, Day 1 (morning dose), 1000 mg BID, n = 6, read-out: Cmax, mean (SD)): 10.7 ng/mL
- AUC ([1]; human, plasma, oral, read-out: AUCss0-12 in the plasma of the subjects (range)): 5.43 to 88.5 ng·h/mL
- AUC ([1]; human, plasma, oral, read-out: average AUCss0-12): 8.94 to 62.1 ng·h/mL
- concentration at 10 days ([1]; human, plasma, oral, multiple doses up to 1000 mg BID, read-out: Plasma concentrations): < 35 ng/mL
- Dose normalized AUC0-12/D, mean (SD) [1, 4]: 0.035 (0.012) ng*hr/mL/mg
- Dose normalized Cmax/D, mean (SD) [1, 4]: 0.0078 (0.0033) ng/mL/mg
- Dose normalized AUC0-12/D, mean (SD) [1, 5]: 0.028 (0.016) ng*hr/mL/mg
- Dose normalized Cmax/D, mean (SD) [1, 5]: 0.0086 (0.0079) ng/mL/mg
- Dose normalized AUC0-12/D, mean (SD) [1, 6]: 0.037 (0.039) ng*hr/mL/mg
- Dose normalized Cmax/D, mean (SD) [1, 6]: 0.011 (0.013) ng/mL/mg
- Dose normalized AUC0-12,ss/D, mean (SD) [1, 7]: 0.089 (0.036) ng*hr/mL/mg
- Dose normalized Cmax,ss/D, mean (SD) [1, 7]: 0.017 (0.0080) ng/mL/mg
- Dose normalized AUC0-12,ss/D, mean (SD) [1, 8]: 0.056 (0.012) ng*hr/mL/mg
- Dose normalized Cmax,ss/D, mean (SD) [1, 8]: 0.012 (0.0045) ng/mL/mg
- Dose normalized Cmax,ss/D, mean (SD) ([1]; plasma, Day 10, 1000 mg BID, n = 6): 0.013 (0.0084) ng/mL/mg
- Kp ([2]; colon/plasma, mouse, oral administration, read-out: ratio of exposure in the colon to exposure in plasma): > 1250
- permeability coefficient (Papp) ([2]; stated in the sentence on the colon and plasma mouse pharmacokinetics study): less than 10×10^−6 cm/sec
- activity in the oxazolone-induced colitis model [3]: demonstrated activity
- splenic NK cell counts (splenic NK cell counts): unaffected

From patent US11471442B2, “Administration of gut-selective JAK3 inhibitor” (THERAVANCE BIOPHARMA R&D IP, LLC, priority 2020, dated 2022)
